This note sets out measurements from PubChem BioAssay (NCI).

Some test systems named below: NCI-H522 lung; SF-539 CNS; IGROV1 ovarian; LOX IMVI melanoma; SN12C renal; NCI-H226 lung; PC-3 prostate; A549 NSCLC; HOP-92 NSCLC; NCI/ADR-RES ovarian.
Holding throughout (assay): NCI tumour cell line growth inhibition, 48 h

Molecules are shown by their SMILES.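 Method: 48-hour compound exposure of cells in 96-well plates, five concentrations, linear interpolation of endpoints. TGI is the concentration that stops growth completely.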

Regarding `CCOC(=S)SC/C(=N\OC(C)(C)OC)c1ccccc1`, the TGI in the test with NCI-H522 lung is 59.1 µM; in the test on SF-539 CNS it was over 100 µM; in the test with IGROV1 ovarian it was over 100 µM; in the test on LOX IMVI melanoma it was 31.2 µM; in the test with SN12C renal it was over 100 µM; with NCI-H226 lung, over 100 µM. Moreover, the TGI with PC-3 prostate is over 100 µM; in the test on A549 NSCLC, over 100 µM; in the test on HOP-92 NSCLC it was 63.8 µM; in the test on NCI/ADR-RES ovarian, over 100 µM.
Consider `Nc1nc(SCc2ccccc2[N+](=O)[O-])c2[nH]cnc2n1`, for which the TGI in the test on NCI-H522 lung was over 67.5 µM; with SF-539 CNS it was over 100 µM; in the test on IGROV1 ovarian, over 68.4 µM; in the test with LOX IMVI melanoma, over 100 µM; with SN12C renal it was over 100 µM; with NCI-H226 lung it was 97.5 µM. Further, the TGI in the test with PC-3 prostate is over 100 µM; in the test with A549 NSCLC, over 100 µM; with HOP-92 NSCLC, 9.06 µM; in the test on NCI/ADR-RES ovarian it was over 100 µM.
On to `O=C(OCc1c(-c2ccccc2)nn(-c2ccccc2)c1COC(=O)Oc1ccccc1)Oc1ccccc1`, for which the TGI in the test on NCI-H522 lung, in the test with SF-539 CNS, in the test on IGROV1 ovarian, with LOX IMVI melanoma, in the test on SN12C renal and with NCI-H226 lung was over 100 µM each time. The TGI in the test with PC-3 prostate, in the test on A549 NSCLC, in the test with HOP-92 NSCLC and with NCI/ADR-RES ovarian was over 100 µM each time.
